In brackets after ≈: the same amount, converted by molar mass.
Tests used:
[1] = Cytotoxicity against BALB mouse 3T3 cells; type: cell-based; conditions: BALB 3T3 cells
MCF7 = assay: Cytotoxicity against human MCF7 cells; type: functional
M14 = assay: Cytotoxicity against human M14 cells; type: functional
K562 = assay: Cytotoxicity against human K562 cells; type: functional
DU-145 = assay: Cytotoxicity against human DU145 cells; type: functional
NCI-H460 = assay: Cytotoxicity against human NCI-H460 cells; type: functional
Trypanosoma cruzi = assay: Antitrypanosomal activity against Trypanosoma cruzi tulahuen C4 trypomastigotes infected in african green monkey Vero cells assessed as CPRG cleavage after 120 hrs by microplate reader; type: functional, organism-based
[2] = system: Mycobacterium tuberculosis; assay: Antitubercular activity against Mycobacterium tuberculosis H37Rv ATCC 27294 after 7 days by microplate alamar blue assay; type: functional; conditions: H37Rv ATCC 27294, 168 h
Leishmania amazonensis = assay: Antileishmanial activity against Leishmania amazonensis MHOM/BR/76/LTB-012 amastigotes infected BALB/c mouse macrophages after 48 hrs by MTT assay; type: functional, organism-based; conditions: MHOM/BR/76/LTB-012, 48 h
[3] = Cytotoxicity against BALB/c mouse macrophages after 48 hrs by trypan blue dye exclusion method; type: cell-based; conditions: Macrophage
HT-29 = assay: Cytotoxicity against human HT-29 cells; type: functional
[4] = Selectivity index, ratio of IC50 for BALB/c mouse macrophages to IC50 for Leishmania amazonensis MHOM/BR/76/LTB-012
[5] = Selectivity index, ratio of IC50 for african green monkey Vero cells to MIC for Mycobacterium tuberculosis H37Rv ATCC 27294 by microplate alamar blue assay; type: functional
Vero = assay: Cytotoxicity against african green monkey Vero cells after 72 hrs by MTS assay; conditions: Chlorocebus sabaeus, Vero, 72 h
[6] = Selectivity index, ratio of IC50 for african green monkey Vero cells to IC50 for Trypanosoma cruzi tulahuen C4

| Structure (SMILES) | GI50 [1] [µM] | GI50 (MCF7) [µM] | GI50 (M14) [µM] | GI50 (K562) [µM] | GI50 (DU-145) [µM] | GI50 (NCI-H460) [µM] | IC50 (Trypanosoma cruzi) [µM] | MIC [2] [µM] | IC50 (Leishmania amazonensis) [µM] | IC50 [3] [µM] | GI50 (HT-29) [µM] | Ratio IC50 [4] | Ratio IC50 [5] | IC50 (Vero) [µM] | selectivity ratio ([6]; Vero cells) | selectivity ratio ([6]; vero) |
| --- | --- | --- | --- | --- | --- | --- | --- | --- | --- | --- | --- | --- | --- | --- | --- | --- |
| O=c1[nH]cc(F)c(=O)[nH]1 [FLUOROURACIL] | < 3 | 4.5 | 32.4 | 89.9 | 5.3 | 2.3 |  |  |  |  |  |  |  |  |  |  |
| c1ccc(C(=NNc2ncnc3sc4c(c23)CCCC4)c2ccccc2)cc1 | > 170 | > 170 | > 170 | > 170 | > 170 | > 170 | > 25 | > 250 | 182 | 156 | > 170 | 0.9 |  |  |  |  |
| CC(C)=NNc1ncnc2sc3c(c12)CCCC3 | > 3.5 | 12.2 | 23.3 | 13.6 | 11.6 | 9.3 | 14.1 | 240 (≈ 62.4 µg/mL) | 40.6 | 238 | 33 | 5.9 | 0.5 | 38.4 | 2.7 |  |
| NNc1ncnc2sc3c(c12)CCCC3 | < 4.5 | 9 | 24.6 | 11.1 | 13.9 | 9.6 | 21.3 | 374 (≈ 82.5 µg/mL) | 54.4 | 33.8 | 20.7 | 0.6 | 0.3 | 40.9 | 1.9 |  |
| N#Cc1ccc(/C=N/Nc2ncnc3sc4c(c23)CCCC4)cc1 | 150 | 102 | > 170 | > 170 | > 170 | > 170 | > 25 | > 300 | 32.3 | 162 | > 170 | 5 |  |  |  |  |
| CC1CS(=O)(=O)CCN1/N=C/c1ccc([N+](=O)[O-])o1 (configuration not stated) [NIFURTIMOX] |  |  |  |  |  |  | 4.5 |  |  |  |  |  |  | 94 |  | 20.8 |
| Fc1ccccc1/C=N/Nc1ncnc2sc3c(c12)CCCC3 | > 250 | > 250 | > 250 | 81.2 | > 250 | > 250 | 10.8 | > 300 | 3.3 | 10.2 | > 250 | 3.1 |  | 18.4 | 1.7 |  |
| Fc1ccc(/C=N/Nc2ncnc3sc4c(c23)CCCC4)cc1 | 20.5 | 7.4 | 17.6 | 8.9 | 13.9 | 9.4 | 18.4 | 71.1 (≈ 23.2 µg/mL) | 9.7 | 9.4 | 10.4 | 1 | 0.6 | 18.4 | 1 |  |
| C(=N\Nc1ncnc2sc3c(c12)CCCC3)/c1ccc[nH]1 | 2.2 | 0.4 | 2.5 | 1.9 | 4.6 | 1.7 | 22.9 | 20.8 (≈ 6.19 µg/mL) | 10.1 | 9.7 | 3.8 | 1 | 0.6 | 3.4 | 0.1 |  |
| O=[N+]([O-])c1ccc(/C=N/Nc2ncnc3sc4c(c23)CCCC4)cc1 | > 170 | > 170 | > 170 | > 170 | > 170 | > 170 | > 25 | > 250 | 38.5 | 199 | > 170 | 5.2 |  |  |  |  |
| Cc1ccc(/C=N/Nc2ncnc3sc4c(c23)CCCC4)cc1 | 37.5 | 12.9 | > 170 | 7.1 | > 170 | 133 | > 25 | > 250 | 42.6 | 19.4 | > 170 | 0.5 |  |  |  |  |
| CC(C)(C)/C=N/Nc1ncnc2sc3c(c12)CCCC3 | 7.3 | 26 | 32.7 | 27.5 | 25.1 | 24.5 | > 25 | 299 (≈ 86.3 µg/mL) | 113 | 176 | 33 | 1.6 | 0.3 |  |  |  |
| COc1cc(/C=N/Nc2ncnc3sc4c(c23)CCCC4)ccc1O |  |  |  |  |  |  |  |  | 7.2 |  |  |  |  |  |  |  |
| C(=N\Nc1ncnc2sc3c(c12)CCCC3)/c1ccncc1 | 83.2 | 83.9 | > 150 | 109 | 83.9 | 169 | > 25 | > 300 | 233 | 154 | 153 | 0.7 |  |  |  |  |
| C=CCOc1cc(/C=N/Nc2ncnc3sc4c(c23)CCCC4)cc(OCC=C)c1Br | < 2 | 3.8 | 12.8 | 3.9 | < 2 | 3.1 | 15.4 | > 200 | 5.3 | 3.5 | 3.9 | 0.7 |  | 6 | 0.4 |  |
| COc1ccc(/C=N/Nc2ncnc3sc4c(c23)CCCC4)c(OC)c1 | 19.9 | 21.1 | 94.4 | 7.9 | 20 | 29.5 | 18.5 | > 250 | 33.2 | 144 | 20 | 4.3 |  | 32.6 | 1.8 |  |
| COc1cc(/C=N/Nc2ncnc3sc4c(c23)CCCC4)cc(OC)c1O | 27.3 | > 170 | > 170 | > 170 | 27.2 | > 170 | > 25 | > 250 | 40.8 | 121 | > 170 | 3 |  |  |  |  |
| CC(C)c1ccc(/C=N/Nc2ncnc3sc4c(c23)CCCC4)cc1 | 9.4 | 5.2 | 17.8 | 4.1 | 10.8 | 5.9 | 5.2 | > 250 | 3.6 | 8.4 | 5.9 | 2.3 |  | 2.9 | 0.5 |  |
| O=[N+]([O-])c1ccccc1/C=N/Nc1ncnc2sc3c(c12)CCCC3 | > 170 | 52 | > 170 | > 170 | 103 | 52.9 | > 25 | > 250 | 108 | > 200 | > 170 |  |  |  |  |  |
| C(=N\Nc1ncnc2sc3c(c12)CCCC3)/c1ccc2c(c1)OCO2 | > 250 | 117 | > 250 | > 250 | > 250 | > 250 | 22.8 | > 250 | 29.4 | 16.3 | > 250 | 0.6 |  | 17 | 0.7 |  |
| C(=N\Nc1ncnc2sc3c(c12)CCCC3)/c1cccc2ccccc12 | 16.7 | 6.3 | 18.4 | 4.7 | 24.1 | 19.9 | 13 | > 250 | 12.7 | 16.6 | 6.2 | 1.3 |  | 2.8 | 0.2 |  |
| COc1cc(/C=N/Nc2ncnc3sc4c(c23)CCCC4)cc(OC)c1OC | 22.5 | 10.5 | 15.6 | 4.7 | 22.5 | 28.3 | > 25 | > 250 | 7.2 | 8.9 | 11.4 | 1.2 |  |  |  |  |
| C[C@@H]1[C@H](O)[C@@H](C)/C=C/C=C/C=C/C=C/C=C/C=C/C=C/[C@H](O[C@@H]2O[C@H](C)[C@@H](O)[C@H](N)[C@@H]2O)C[C@@H]2O[C@](O)(C[C@@H](O)C[C@@H](O)[C@H](O)CC[C@@H](O)C[C@@H](O)CC(=O)O[C@H]1C)C[C@H](O)[C@H]2C(=O)O [AMPHOTERICIN B] |  |  |  |  |  |  |  |  |  | 5.4 |  | 54 |  |  |  |  |
| CC(C)(C)c1ccc(/C=N/Nc2ncnc3sc4c(c23)CCCC4)cc1 | 23.2 | 6.3 | 30.3 | 6.4 | 21.9 | 6.4 | 11.2 | > 250 | 1.7 | 6.6 | 15.7 | 3.8 |  | 13.7 | 1.2 |  |
| C(=N\Nc1ncnc2sc3c(c12)CCCC3)/c1ccc2ccccc2c1 | 27.9 | 9.3 | 35.2 | 6.2 | 24.1 | 20.8 | 13.3 | > 250 | 39 | 15.9 | 19.4 | 0.4 |  | 13.9 | 1.1 |  |
